# Legend:
# Type in all cases: in vivo
# wheat variety Ritmo [1] = test: Plot trial in Germany: green leaf area by visual scoring; settings: sprays at BBCH 39 and 59
# Procedure: In Germany a plot trial was set up with the wheat variety Ritmo in order to investigate the effect of bixafen on the physiology, morphology and abiotic stress tolerance of wheat plants under realistic agricultural conditions. The products under test were applied to the plants, in the form of sequential spray sequences (BBCH 39 and 59). The spray volume was 400 l of water per hectare. In each trial component, 5 repetitions were carried out. [table] The duration of green coloration of the leaf area was captured by regular visual scoring of the fraction of green leaf area.
# [2] = test system: infection-free wheat plants of the cultivar Passat; test: Glasshouse trial: time of heading (ear emergence); set-up: time of heading of wheat (ears emerged): unit not given here
# Procedure: (§1) In a glasshouse trial under controlled conditions, the effect of bixafen was investigated on the physiology, morphology and abiotic stress tolerance of infection-free wheat plants of the cultivar […] plants were grown in 10-litre containers over a period of 4 months. The substrate used was standard earth type ED 73 (Fröndenberg, Germany)+C-Horizont+Sand (4:2:1). The supply of nutrient to the plants took place by feeding with a 0.2% strength Flory 2 liquid fertilizer solution (from Euflor, Munich) once every two weeks. The plants were supplied with water as required. In each component of the trial, 10 repetitions were carried out.
# [3] = test system: infection-free wheat plants of the cultivar Passat; test: Glasshouse trial: yield components; settings: glasshouse, sprays at BBCH 39 and 59
# [4] = test system: infection-free wheat plants of the cultivar Passat; test: Glasshouse trial: size of the flag leaf; settings: at BBCH 83-85
# Procedure: (§2) In a glasshouse trial under controlled conditions, the effect of bixafen was investigated on the physiology, morphology and abiotic stress tolerance of infection-free wheat plants of the cultivar […] plants were grown in 10-litre containers over a period of 4 months. The substrate used was standard earth type ED 73 (Fröndenberg, Germany)+C-Horizont+Sand (4:2:1). The supply of nutrient to the plants took place by feeding with a 0.2% strength Flory 2 liquid fertilizer solution (from Euflor, Munich) once every two weeks. The plants were supplied with water as required. In each component of the trial, 10 repetitions were carried out. To prevent infestation with powdery mildew, Proquinazid (Talius® was applied once. The incidence of aphids and spider mites was avoided by treatments with Karate®, Bulldock® and Sumicidin®. The products under test were applied to the plants, in the form of sequential spray sequences (BBCH 39 and 59). The spray volume was 300 l of water per hectare. [table] Morphological parameters measured, additionally, were the length and width, i.e. the size of the flag leaf. This was greatest with the succinate dehydrogenase (SDH) inhibitor bixafen, in comparison to the other comparison fungicides.
# wheat variety Ritmo [5] = test: Plot trial: yield components; settings: sprays at BBCH 39 and 59
# [6] = test system: infection-free wheat plants of the cultivar Passat; test: Glasshouse trial: temperature of ears and leaves as measure of transpiration activity
# Procedure: as §1
# wheat variety Ritmo [7] = test: Plot trial: chlorophyll content of leaves (pigment extraction method of Ziegler and Ehle)
# [8] = test system: infection-free wheat plants of the cultivar Passat; test: Glasshouse trial: gas exchange activity of wheat ears; settings: development stage BBCH 75
# Procedure: as §1
# [9] = test system: infection-free wheat plants of the cultivar Passat; test: Glasshouse trial: green leaf area by visual scoring; settings: glasshouse
# Procedure: as §2, with “The duration” for “Morphological parameters measured, additionally, were the length and width, i.e. the size”, “green coloration of the leaf area” for “flag leaf. This”, “captured on” for “greatest with”, “basis of regular visual scoring of” for “succinate dehydrogenase (SDH) inhibitor bixafen, in comparison to”, “fraction of the green leaf area.” for “other comparison fungicides.”
# [10] = 7 days after second fungicide application
# [11] = 14 days after second fungicide application
# [12] = 21 days after second fungicide application
# [13] = 28 days after second fungicide application
# [14] = 35 days after second fungicide application
# [15] = 42 days after second fungicide application
# [16] = 68 days after second fungicide application (so in the source)
# [17] = 75 days after second fungicide application (so in the source)
# [18] = 82 days after second fungicide application (so in the source)
# [19] = 89 days after second fungicide application (so in the source)
# [20] = 96 days after second fungicide application (so in the source)
# [21] = 103 days after second fungicide application (so in the source)
# [22] = 110 days after second fungicide application (so in the source)
# [23] = 117 days after second fungicide application (so in the source)
smiles,measurement,setting,value
CO/N=C(/C1=NOCCO1)c1ccccc1Oc1ncnc(Oc2ccccc2Cl)c1F [Fluoxastrobin],green leaf area of the flag leaf,wheat variety Ritmo [1]; [10],98.7 % leaf area
same,green leaf area of the second-from-top leaf (F-1),wheat variety Ritmo [1]; [10],98.8 % leaf area
same,green leaf area of the third-from-top leaf (F-2),wheat variety Ritmo [1]; [10],96.3 % leaf area
same,green leaf area of the flag leaf,wheat variety Ritmo [1]; [11],98.7 % leaf area
same,green leaf area of the second-from-top leaf (F-1),wheat variety Ritmo [1]; [11],98.0 % leaf area
same,green leaf area of the third-from-top leaf (F-2),wheat variety Ritmo [1]; [11],95.5 % leaf area
same,green leaf area of the flag leaf,wheat variety Ritmo [1]; [12],98.3 % leaf area
same,green leaf area of the second-from-top leaf (F-1),wheat variety Ritmo [1]; [12],96.1 % leaf area
same,green leaf area of the third-from-top leaf (F-2),wheat variety Ritmo [1]; [12],92.1 % leaf area
same,green leaf area of the flag leaf,wheat variety Ritmo [1]; [13],95.8 % leaf area
same,green leaf area of the second-from-top leaf (F-1),wheat variety Ritmo [1]; [13],93.5 % leaf area
same,green leaf area of the third-from-top leaf (F-2),wheat variety Ritmo [1]; [13],88.5 % leaf area
same,green leaf area of the flag leaf,wheat variety Ritmo [1]; [14],63.0 % leaf area
same,green leaf area of the second-from-top leaf (F-1),wheat variety Ritmo [1]; [14],47.0 % leaf area
same,green leaf area of the third-from-top leaf (F-2),wheat variety Ritmo [1]; [14],31.5 % leaf area
same,green leaf area of the flag leaf,wheat variety Ritmo [1]; [15],23.7 % leaf area
same,green leaf area of the second-from-top leaf (F-1),wheat variety Ritmo [1]; [15],9.8 % leaf area
same,green leaf area of the third-from-top leaf (F-2),wheat variety Ritmo [1]; [15],1.9 % leaf area
same,green leaf area of the second-from-top leaf (F-1),wheat variety Ritmo [1]; 49 days after second fungicide application,0 % leaf area
same,time of heading of wheat (ears emerged),[2]; 45 days after sowing,11.4
same,time of heading of wheat (ears emerged),[2]; 50 days after sowing,33.1
same,time of heading of wheat (ears emerged),[2]; 55 days after sowing,43.8
same,time of heading of wheat (ears emerged),[2]; 60 days after sowing,49.9
same,time of heading of wheat (ears emerged),[2]; 65 days after sowing,61.1
same,time of heading of wheat (ears emerged),[2]; 70 days after sowing,76.4
same,time of heading of wheat (ears emerged),[2]; 75 days after sowing,87.8
same,time of heading of wheat (ears emerged),[2]; 80 days after sowing,93.1
same,time of heading of wheat (ears emerged),[2]; 85 days after sowing,97.1
same,Ears/pot,[3],41.0
same,Harvest Index,[3],29.0%
same,Kernels/ear,[3],21.9
same,Straw,[3],74.5 g/pot
same,TKM (thousand-kernel mass),[3],34.3 g
same,Yield,[3],30.5 g/pot
same,Length of the flag leaf,[4],25.6 cm
same,Width of the flag leaf,[4],1.4 cm
same,Area of the flag leaf,[4]; calculated using the formula A = 0.67 × length × width,24.01 cm^2
same,Area [rel.] of the flag leaf,[4]; untreated = 100,110 rel.
same,Ears/m^2,wheat variety Ritmo [5],409
same,Harvest Index,wheat variety Ritmo [5],58.1
same,Straw,wheat variety Ritmo [5],581 g m^−2
same,TKM (thousand-kernel mass),wheat variety Ritmo [5],45.8 g
same,Yield,wheat variety Ritmo [5],8.2 t ha^−1
same,Temperature (as a measure of the transpiration activity),"[6]; BBCH 75, ear",23.1 °C
same,Temperature (as a measure of the transpiration activity),"[6]; BBCH 75, leaf",22.3 °C
same,Temperature (as a measure of the transpiration activity),"[6]; BBCH 80, ear",18.9 °C
same,Temperature (as a measure of the transpiration activity),"[6]; BBCH 80, leaf",16.5 °C
same,Temperature (as a measure of the transpiration activity),"[6]; BBCH 85, ear",24.8 °C
same,Temperature (as a measure of the transpiration activity),"[6]; BBCH 85, leaf",23.4 °C
same,Temperature (as a measure of the transpiration activity),"[6]; BBCH 90, ear",23.9 °C
same,Temperature (as a measure of the transpiration activity),"[6]; BBCH 90, lear (so in the source)",22.7 °C
same,Chlorophyll content,"wheat variety Ritmo [7]; BBCH 75 (mature milk), leaf F",1924 µg/g
same,Chlorophyll content,"wheat variety Ritmo [7]; BBCH 75 (mature milk), leaf F-1",1671 µg/g
same,Chlorophyll content,"wheat variety Ritmo [7]; BBCH 75 (mature milk), leaf F-2",1126 µg/g
same,Chlorophyll content,"wheat variety Ritmo [7]; BBCH 85 (mature dough), leaf F",630 µg/g
same,Chlorophyll content,"wheat variety Ritmo [7]; BBCH 85 (mature dough), leaf F-1",534 µg/g
same,Chlorophyll content,"wheat variety Ritmo [7]; BBCH 85 (mature dough), leaf F-2",415 µg/g
same,Photosynthesis (gas exchange activity of wheat ears),[8],−2.44 a CO2 per ear
same,Respiration (gas exchange activity of wheat ears),[8],2.96 b CO2 per ear
same,green leaf area of the flag leaf (F),[9]; [16],100 % leaf area
same,green leaf area of the second-from-top leaf (F-1),[9]; [16],100 % leaf area
same,green leaf area of the third-from-top leaf (F-2),[9]; [16],100 % leaf area
same,green leaf area of the flag leaf (F),[9]; [17],100 % leaf area
same,green leaf area of the second-from-top leaf (F-1),[9]; [17],100 % leaf area
same,green leaf area of the third-from-top leaf (F-2),[9]; [17],95 % leaf area
same,green leaf area of the flag leaf (F),[9]; [18],100 % leaf area
same,green leaf area of the second-from-top leaf (F-1),[9]; [18],95 % leaf area
same,green leaf area of the third-from-top leaf (F-2),[9]; [18],82 % leaf area
same,green leaf area of the flag leaf (F),[9]; [19],95 % leaf area
same,green leaf area of the second-from-top leaf (F-1),[9]; [19],84 % leaf area
same,green leaf area of the third-from-top leaf (F-2),[9]; [19],54 % leaf area
same,green leaf area of the flag leaf (F),[9]; [20],85 % leaf area
same,green leaf area of the second-from-top leaf (F-1),[9]; [20],56 % leaf area
same,green leaf area of the third-from-top leaf (F-2),[9]; [20],29 % leaf area
same,green leaf area of the flag leaf (F),[9]; [21],60 % leaf area
same,green leaf area of the second-from-top leaf (F-1),[9]; [21],30 % leaf area
same,green leaf area of the third-from-top leaf (F-2),[9]; [21],18 % leaf area
same,green leaf area of the flag leaf (F),[9]; [22],37 % leaf area
same,green leaf area of the second-from-top leaf (F-1),[9]; [22],18 % leaf area
same,green leaf area of the third-from-top leaf (F-2),[9]; [22],7 % leaf area
same,green leaf area of the flag leaf (F),[9]; [23],12 % leaf area
same,green leaf area of the second-from-top leaf (F-1),[9]; [23],6 % leaf area
same,green leaf area of the third-from-top leaf (F-2),[9]; [23],0 % leaf area
